Reference: PubChem BioAssay (NCI)
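Grown in 96-well plates, cells were treated for 48 hours with each compound at five concentrations. Insufficient inhibition: endpoint recorded as highest concentration tested. GI50 is the concentration that inhibits growth by half. At the TGI there is no net growth.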

Key:
Assay in all cases: inhibition of tumour cell growth, NCI panel, 48 h
K-562 leukemia = system: K-562 leukemia
MOLT-4 leukemia = system: MOLT-4 leukemia
SR leukemia = system: SR leukemia
HOP-62 NSCLC = system: HOP-62 NSCLC
LOX IMVI melanoma = system: LOX IMVI melanoma
A549 NSCLC = system: A549 NSCLC
HCC-2998 colon = system: HCC-2998 colon
SNB-19 CNS = system: SNB-19 CNS
NCI-H23 lung = system: NCI-H23 lung
T-47D breast = system: T-47D breast

## CC1(C)CC2CC(CC(C)(C)C2=O)C1=O
K-562 leukemia
  TGI: > 100 µM
MOLT-4 leukemia
  TGI: > 100 µM
SR leukemia
  TGI: > 100 µM
HOP-62 NSCLC
  TGI: > 100 µM
LOX IMVI melanoma
  TGI: > 100 µM
A549 NSCLC
  TGI: > 100 µM
HCC-2998 colon
  TGI: > 100 µM
SNB-19 CNS
  TGI: > 100 µM
NCI-H23 lung
  TGI: > 100 µM

## NC(=O)NC12CC3CC(CC(F)(C3)C1)C2
K-562 leukemia
  TGI: > 100 µM
MOLT-4 leukemia
  TGI: > 100 µM
HOP-62 NSCLC
  TGI: > 100 µM
LOX IMVI melanoma
  TGI: > 100 µM
A549 NSCLC
  TGI: > 100 µM
HCC-2998 colon
  TGI: > 100 µM
SNB-19 CNS
  TGI: > 100 µM
NCI-H23 lung
  TGI: > 100 µM

## CCOc1ccc(NC(=O)C(=O)C(C(=O)c2ccc3ccccc3c2)C2OC(=O)c3ccccc32)cc1 (stereo unspecified)
K-562 leukemia
  TGI: > 100 µM
MOLT-4 leukemia
  TGI: 43.7 µM
HOP-62 NSCLC
  TGI: 39.4 µM
LOX IMVI melanoma
  TGI: 33.2 µM
A549 NSCLC
  TGI: > 100 µM
HCC-2998 colon
  TGI: 23.2 µM
SNB-19 CNS
  TGI: > 100 µM
NCI-H23 lung
  TGI: 33 µM

## COc1cc2c(cc1OC)[C@@H](Nc1ccc(F)cc1)C1COC(=O)[C@@H]1C2c1cc(OC)c(O)c(OC)c1 (stereo partly specified)
K-562 leukemia
  TGI: 11.8 µM
MOLT-4 leukemia
  TGI: 0.21 µM
SR leukemia
  TGI: 0.282 µM
HOP-62 NSCLC
  TGI: 2.49 µM
LOX IMVI melanoma
  TGI: > 43.4 µM
A549 NSCLC
  TGI: 15 µM
HCC-2998 colon
  TGI: 9.9 µM
SNB-19 CNS
  TGI: > 100 µM
NCI-H23 lung
  TGI: 18.6 µM

## CCc1ccc2c(c1)C(=O)c1c-2n(CCCN=[N+]=[N-])c(=O)c2cc(OC)c(OC)cc12
K-562 leukemia
  GI50: > 100 µM
  TGI: > 100 µM
MOLT-4 leukemia
  GI50: > 100 µM
  TGI: > 100 µM
T-47D breast
  GI50: > 100 µM
  TGI: > 100 µM
HOP-62 NSCLC
  GI50: 56.2 µM
  TGI: > 100 µM
LOX IMVI melanoma
  GI50: > 100 µM
  TGI: > 100 µM
A549 NSCLC
  GI50: > 100 µM
  TGI: > 100 µM
HCC-2998 colon
  GI50: > 100 µM
  TGI: > 100 µM
SNB-19 CNS
  GI50: > 100 µM
  TGI: > 100 µM
NCI-H23 lung
  GI50: > 100 µM
  TGI: > 100 µM

## CNC(=O)OCc1c2ccncc2c(C)c2c1[nH]c1ccc(OC)cc12
K-562 leukemia
  TGI: 2.48 µM
MOLT-4 leukemia
  TGI: 0.516 µM
HOP-62 NSCLC
  TGI: 1.07 µM
LOX IMVI melanoma
  TGI: > 100 µM
A549 NSCLC
  TGI: > 100 µM
HCC-2998 colon
  TGI: 1.02 µM
SNB-19 CNS
  TGI: 1.93 µM

## Cc1ccc(-c2csc(NC(=O)N3CCN(c4cc5c(cc4F)c(=O)c(C(=O)O)cn5C4CC4)CC3)n2)cc1
K-562 leukemia
  GI50: 0.881 µM
  TGI: > 100 µM
HOP-62 NSCLC
  GI50: 0.484 µM
  TGI: > 100 µM
LOX IMVI melanoma
  GI50: 0.362 µM
  TGI: > 100 µM
A549 NSCLC
  GI50: 0.365 µM
  TGI: > 100 µM
HCC-2998 colon
  GI50: 0.699 µM
  TGI: > 100 µM
SNB-19 CNS
  GI50: 0.398 µM
  TGI: > 100 µM
NCI-H23 lung
  GI50: 0.391 µM
  TGI: > 100 µM

## O=S(=O)(/C=C/CS(=O)(=O)c1ccccc1)c1ccccc1
K-562 leukemia
  TGI: 98.4 µM
MOLT-4 leukemia
  TGI: 74 µM
SR leukemia
  TGI: 36.4 µM
HOP-62 NSCLC
  TGI: 46.2 µM
LOX IMVI melanoma
  TGI: 57.4 µM
A549 NSCLC
  TGI: 60.8 µM
HCC-2998 colon
  TGI: 57.1 µM
SNB-19 CNS
  TGI: > 100 µM
NCI-H23 lung
  TGI: 50 µM

## COc1cnc2c(c1)C(=O)c1c-2n(CCCNC2=NCCS2)c(=O)c2cc(Cl)ccc12
MOLT-4 leukemia
  GI50: 0.0454 µM
  TGI: 1.71 µM
HOP-62 NSCLC
  GI50: 0.0425 µM
  TGI: 1.51 µM
A549 NSCLC
  GI50: 1.2 µM
  TGI: 2.51 µM
HCC-2998 colon
  GI50: 1.36 µM
  TGI: 2.68 µM
NCI-H23 lung
  GI50: 0.3 µM
  TGI: 2.11 µM

## CC1=C(C(=O)N(C)c2ccc(Cl)c(C(=O)OC(C)C)c2)SCCO1
K-562 leukemia
  TGI: > 100 µM
MOLT-4 leukemia
  TGI: > 100 µM
T-47D breast
  TGI: > 100 µM
LOX IMVI melanoma
  TGI: > 100 µM
A549 NSCLC
  TGI: > 100 µM
HCC-2998 colon
  TGI: > 100 µM
SNB-19 CNS
  TGI: > 100 µM
NCI-H23 lung
  TGI: > 100 µM

## CCCN(CCC)C(=O)C(=O)c1c(N)[nH]n(-c2ccccc2)c1=O
K-562 leukemia
  TGI: > 100 µM
MOLT-4 leukemia
  TGI: > 100 µM
LOX IMVI melanoma
  TGI: > 100 µM
A549 NSCLC
  TGI: > 100 µM
HCC-2998 colon
  TGI: > 100 µM
SNB-19 CNS
  TGI: > 100 µM
NCI-H23 lung
  TGI: > 100 µM

## COc1cccc(NC(=O)CC(=O)N2N=C(N3c4ccccc4Sc4ccccc43)CC2c2ccccc2)c1 (stereo unspecified)
MOLT-4 leukemia
  TGI: > 100 µM
SR leukemia
  TGI: > 100 µM
HOP-62 NSCLC
  TGI: > 100 µM
LOX IMVI melanoma
  TGI: > 100 µM
A549 NSCLC
  TGI: > 100 µM
HCC-2998 colon
  TGI: > 100 µM
SNB-19 CNS
  TGI: > 100 µM
NCI-H23 lung
  TGI: > 100 µM

## COC1=C(C)C(=O)c2c(cc3c(c2O)C(C)(CCC=C(C)C)C(C)O3)C1=O (stereo unspecified)
K-562 leukemia
  TGI: > 100 µM
MOLT-4 leukemia
  TGI: > 100 µM
SR leukemia
  TGI: > 100 µM
HOP-62 NSCLC
  TGI: 34.1 µM
LOX IMVI melanoma
  TGI: > 100 µM
A549 NSCLC
  TGI: 39.8 µM
HCC-2998 colon
  TGI: > 78.8 µM
SNB-19 CNS
  TGI: 34.5 µM
NCI-H23 lung
  TGI: 68.5 µM

## O=C(O)c1nc(-c2ccc(Cl)c(Cl)c2)nc2ccc(Cl)cc12
K-562 leukemia
  TGI: > 10 µM
MOLT-4 leukemia
  TGI: > 100 µM
SR leukemia
  TGI: > 100 µM
HOP-62 NSCLC
  TGI: > 100 µM
A549 NSCLC
  TGI: > 100 µM
HCC-2998 colon
  TGI: > 100 µM
SNB-19 CNS
  TGI: > 100 µM
NCI-H23 lung
  TGI: > 100 µM

## COc1ccc2nc3cc(Cl)ccc3c(SCC(=O)Nc3ccccc3-c3ccccc3NC(=O)CSc3c4ccc(Cl)cc4nc4ccc(OC)cc34)c2c1
K-562 leukemia
  TGI: > 100 µM
MOLT-4 leukemia
  TGI: > 100 µM
HOP-62 NSCLC
  TGI: > 100 µM
LOX IMVI melanoma
  TGI: > 100 µM
A549 NSCLC
  TGI: > 100 µM
HCC-2998 colon
  TGI: > 100 µM
SNB-19 CNS
  TGI: > 100 µM
NCI-H23 lung
  TGI: > 100 µM

## COc1ccc(CC2(Cc3ccc(OC)cc3)CCOC2=O)cc1
K-562 leukemia
  TGI: > 100 µM
MOLT-4 leukemia
  TGI: > 100 µM
SR leukemia
  TGI: > 100 µM
HOP-62 NSCLC
  TGI: > 100 µM
A549 NSCLC
  TGI: > 100 µM
SNB-19 CNS
  TGI: > 100 µM
NCI-H23 lung
  TGI: > 100 µM

## Cn1cc(-c2csc(-c3cn(CCCN4CCCCC4)c4ccccc34)n2)c2cccnc21
T-47D breast
  GI50: 17.4 µM
  TGI: 51.3 µM
LOX IMVI melanoma
  GI50: 1.66 µM
  TGI: 3.11 µM
A549 NSCLC
  GI50: 1.97 µM
  TGI: 3.6 µM
HCC-2998 colon
  GI50: 1.68 µM
  TGI: 3.23 µM
SNB-19 CNS
  GI50: 1.83 µM
  TGI: 3.34 µM
NCI-H23 lung
  GI50: 1.82 µM
  TGI: 3.62 µM

## C[CH2][Sn]([CH2]C)([O]C(=O)c1ccccc1F)[O][Sn]([CH2]C)([CH2]C)[O]C(=O)c1ccccc1F
K-562 leukemia
  GI50: 13.5 µM
  TGI: 36.6 µM
MOLT-4 leukemia
  GI50: 22 µM
  TGI: > 75.3 µM
SR leukemia
  GI50: 34.6 µM
  TGI: > 100 µM
HOP-62 NSCLC
  GI50: > 100 µM
  TGI: > 100 µM
LOX IMVI melanoma
  GI50: 19.4 µM
  TGI: 37.1 µM
A549 NSCLC
  GI50: > 100 µM
  TGI: > 100 µM
HCC-2998 colon
  GI50: > 43.7 µM
  TGI: > 73.8 µM
SNB-19 CNS
  GI50: > 43.6 µM
  TGI: > 57.6 µM
NCI-H23 lung
  GI50: 15.8 µM
  TGI: 33.6 µM

## C[C@]12CCC(=O)CC1CCCC2=O (stereo partly specified)
K-562 leukemia
  TGI: > 100 µM
MOLT-4 leukemia
  TGI: > 100 µM
HOP-62 NSCLC
  TGI: > 100 µM
LOX IMVI melanoma
  TGI: > 100 µM
A549 NSCLC
  TGI: > 100 µM
HCC-2998 colon
  TGI: > 100 µM
SNB-19 CNS
  TGI: > 100 µM
NCI-H23 lung
  TGI: > 100 µM

## CCOC(=O)/C(O)=C(/C(=O)OC)c1ccc(Cl)cc1
K-562 leukemia
  TGI: > 100 µM
MOLT-4 leukemia
  TGI: > 100 µM
HOP-62 NSCLC
  TGI: > 100 µM
LOX IMVI melanoma
  TGI: > 100 µM
A549 NSCLC
  TGI: > 100 µM
HCC-2998 colon
  TGI: > 100 µM
SNB-19 CNS
  TGI: > 100 µM
NCI-H23 lung
  TGI: > 100 µM

## O=[N+]([O-])c1ccc(N=Nc2ccc(O)c3ccccc23)cc1
K-562 leukemia
  GI50: 3.13 µM
  TGI: > 100 µM
MOLT-4 leukemia
  GI50: 5.22 µM
  TGI: > 100 µM
SR leukemia
  GI50: 2.99 µM
  TGI: 23.4 µM
HOP-62 NSCLC
  GI50: 20.3 µM
  TGI: > 100 µM
LOX IMVI melanoma
  GI50: 2.5 µM
  TGI: 13.6 µM
A549 NSCLC
  GI50: 12 µM
  TGI: > 100 µM
HCC-2998 colon
  GI50: 10.3 µM
  TGI: > 100 µM
SNB-19 CNS
  GI50: 4.76 µM
  TGI: > 100 µM
NCI-H23 lung
  GI50: 1.79 µM
  TGI: 6.88 µM
